Source: patent US10967023B2, “Preparation of a chinese medicinal composition including ginseng, ginkgo leaf and stigma croci” (priority 2014, dated 2021)

How the values were obtained:
[1] = test system: ADP induced platelet aggregation of rats; test: Platelet aggregation inhibition test (ADP induced, PRP of dosed rats); format: in vivo, SD rats; conditions: ADP 5 μmol/L
Protocol: (§1) The same volume of saline was given to the Blank control group. The rats were administered once a day for 7 days.
Platelet aggregation inhibition test: 1 h after 7 days of administration to the rats of the groups, the rats were hypnotized according to the above method, a tube was inserted into the common carotid artery to collect blood, the blood was added 3.8% sodium citrate in a ratio of 1:9 to become anticoagulant, when it was centrifuged for 5 minutes at 500 rpm, the upper portion of the plasma was taken to be the platelet-rich plasma (PRP), the remaining part was centrifuged again for 15 minutes at 3,500 rpm, the supernatant was platelet poor plasma (the PPP), the number of platelet of PRP was counted with platelet counting instrument, the number of platelet of PRP was adjusted with PPP to about […]. The temperature of the sample tube was kept at 37° C. for 3 minutes, then 5 μL ADP was added (final concentration 5 μmol/L), stirring speed of the stirrer was 500 r/min, the space between the rows of the movement of the recording pen was recorded after adding, and the aggregation rate was calculated according to the following formula: Aggregation rate(%)=the itinerary of adding ADP×100%/0˜100% of the itinerary

[2] = test system: thrombosis of rats; test: Artery-vein shunt thrombosis in rats (thrombus formation in vivo); set-up: species or system SD rats; conditions: compositions 3 g/kg, aspirin 0.0044 g/kg
Protocol: as §1
Experiments of thrombus formation, in vivo: 1 h after 7 days of administration, the rats of the groups were hypnotized through intraperitoneal injection with 0.8% sodium pentobarbital, with a dose of 40 mg/kg referring to the artery-vein shunt thrombosis method [Zhang Jun Tian. Modern pharmacology experimental methods. Beijing: Beijing Medical University Press, 1998; 1216-1217], right common carotid artery and left external jugular vein were separated. Three sections of polyethylene plastic pipe were taken, the diameter of the middle section was 2 mm, the length was about 8.5 cm, the diameter of the two plastic pipe of the two ends were 1.5 mm, the length were 10 cm respectively. A No 4 operation silk thread that was weighed previously with a length of about 7 cm was placed in the plastic pipe in the middle section, wherein one end of the thread with the length of 0.5 cm was exposed to the pipe to fix the position, and a silk thread with a length of 6.5 cm was kept in the pipe, the polyethylene plastic pipe was filled with heparin solution, one end of the plastic tube was inserted into the left external jugular vein, the other end of the plastic tube was inserted into the right common carotid artery, then the bloodstream was opened immediately. […]

[3] = test system: sodium nitrite induced consolidate memory disorder mice; test: Sodium nitrite induced consolidate memory disorder model mice, jumping platform test; format: in vivo, ICR mice; conditions: sodium nitrite 120 mg/kg mice; compositions 4 g/kg, Huperzine 0.00008 g/kg, Tanakan 0.03 g/kg, 15 days
Protocol: (§2) Experimental grouping was the same as that of test example 5.
The animals were intragastric administered once a day at a dose of 20 mL/kg, distilled water was given to the animals of blank control group and model group, one time a day, lasted for 15 days. 60 minutes after the administration on the 14th day, the mice were placed on the jumping program automatic controller, to train for 5 minutes, and the mice were stimulated by electric shock for 5 times. After the treatment, saline was given immediately to the mice of comparative group through back and neck subcutaneous injection in a volume of 10 ml/kg, sodium nitrite (120 mg/kg) were injected to the rest of the animals. 60 minutes after the administration on the 15th day, the animals of the groups were placed on the jumping program automatic controller, the number of errors and the incubation period of mice within 5 minutes were determined. The results were analyzed statistically (t test).

[4] = test system: reserpine induced acquired memory disorder model mice; test: Reserpine induced acquired memory disorder model mice, jumping platform test; format: in vivo, ICR mice; conditions: reserpine 0.5 mg/kg mice; compositions 4 g/kg, Huperzine 0.00008 g/kg, Tanakan 0.03 g/kg, 15 days
Protocol: as §2
The animals were intragastric administered once a day at a dose of 20 mL/kg, distilled water was given to the blank control group and the model group, one time a day, lasted for 15 days. After the administration on the 14th day, saline was given immediately to the mice of the blank control group through back and neck subcutaneous injection in a volume of 10 ml/kg, the rest animals were given reserpine hydrochloride (0.5 mg/kg) through back and neck subcutaneous injection. 60 minutes after the injection, the mice were placed on the jumping program automatic controller, to adapt for 3 minutes, then power on, the mice were stimulated by electric shock for 5 times, when the mice were stimulated, they jump to the diving platform to avoid electric shock, trained 5 minutes to obtain memory. 60 minutes after the administration on the 15th day, the animals were placed on the jumping program automatic controller, the number of errors and the incubation period of mice within 5 minutes were determined. The results were analyzed statistically (t test).

[5] = test system: SOD, GSH-Px, MDA, NO of brain tissue; test: Activities of SOD, GSH-Px and contents of MDA, NO of brain tissue (ischemia-reperfusion + D-galactose mice); format: in vivo, ICR mice; conditions: 8 weeks, compositions 4 g/kg, Huperzine 0.00008 g/kg, Tanakan 0.03 g/kg
Protocol: (§3) The mice were anaesthetized with chloral hydrate, incisions were made in the necks, ischemia and reperfusion surgery was applied: bilateral common carotid arteries were separated, were clipped by bulldog clamp for 20 minutes, loosened for 2 minutes, then were clipped again for 20 minutes then loosened, at the same time, the tails of the mice were cut, 0.5 mL blood was collected, repeated cerebral ischemia-reperfusion injury was formed, sutured the wounds of the rats then fed them in cages. 7 days after the operation, D-galactose (100 mg/kg, 10 mL/kg) was given to the mice through subcutaneous injection on the back, and simultaneously, the mice were intragastric administered (20 mL/kg) once a day, lasted for 8 weeks; for the sham group, common carotid arteries were separated without clipping, the same volume of saline was injected through subcutaneous injection on the back; for D-galactose group, common carotid arteries were separated without clipping, D-galactose (100 mg/kg, 10 mL/kg) was injected through subcutaneous injection on the back; the ischemia reperfusion group was received an ischemia reperfusion operation, the same volume of saline was injected through subcutaneous injection on the back. The sham group, complex model group, D-galactose group were given gavages of distilled water of the same volume.
(§4) 8 weeks after the administration, the mice were trained for 3 days in the MRRIS water maze, two times a day, the learning and memory behavior were determined on the 4th day, on the 5th day, the heads were cut to take the brains, the brains were formulated into 10% homogenates with saline, the activities of AchE, SOD, GSH-Px, the contents of biochemical indicators such as MDA, NO in the brain tissues were determined (colorimetry). The results were analyzed statistically (t test)

[6] = test system: ischemic reperfusion and D-galactose induced learning and memory impairment mice; test: MORRIS water maze in mice with ischemic reperfusion and subcutaneous D-galactose induced learning and memory impairment; format: in vivo, ICR mice; conditions: 8 weeks
Protocol: as §3, §4

[7] = test system: scopolamine hydrobromide induced acquired memory disorder model mice; test: Scopolamine hydrobromide induced acquired memory disorder model mice, jumping platform test; format: in vivo, ICR mice; conditions: scopolamine 6 mg/kg mice; compositions 4 g/kg, Huperzine 0.00008 g/kg, Tanakan 0.03 g/kg, 15 days
Protocol: The animals were intragastric administered once a day at a dose of 20 mL/kg, distilled water was given to blank control group and model group, one time a day, lasted for 15 days, 50 minutes after the administration on the 14th day, saline was given to the mice of blank control group through intraperitoneal injection in a volume of 10 ml/kg, the rest animals were given scopolamine through injection (6 mg/kg). 10 minutes later, the mice were placed on the jumping program automatic controller, to adapt for 3 minutes, then power on, the mice were stimulated by electric shock for 5 times, when the mice were stimulated, they jump to the diving platform to avoid electric shock, trained 5 minutes to obtain memory. 60 minutes after the administration on the 15th day, the animals were placed on the jumping program automatic controller, the number of times that the mice left the jump platform and received electric shock and the time of occurrence (the incubation period) were determined (number of errors). The results were analyzed statistically (t test).

[8] = test system: hippocampal pyramidal cell; test: Pathological examination of hippocampus of VaD rats (HE); format: in vivo, SD rats; conditions: 2 months of administration
Protocol: (§5) The sham group and the model group were given gavages of distilled water of the same volume. 2 months, 3 months after the models were created (1 month and 2 months after the administration), the time of the duration of MORRIS water maze were measured. After the last measurement, blood was taken from abdomens aorta, the brain was taken quickly, and the left hemisphere was solidified with liquid nitrogen. In ice bath, with 0.15M HCLO4 homogenates (1 ml was added for 100 mg brain weight) 14000×g 4° C., centrifuged for 20 min, the supernatant was taken, filtered with 0.22 μm membrane, 10 μl was fed into the auto sampler, the content of Ach was determined using HPLC; right hemisphere, 4 for each group, were solidified with formalin, dehydrated, embedded, sliced, HE dyed for pathological examination, homogenates of six brain tissue, AchE, SOD activity and MDA content (colorimetric method) were measured; Indicators such as neuropeptide Y, β-EP in plasma were determined (RIA). The results were analyzed statistically (t test).

[9] = test system: VaD rats; test: MORRIS water maze in VaD rats (permanent ligation of bilateral common carotid artery); format: in vivo, SD rats
Protocol: as §5

[10] = test system: plasma NPY, β-EP; test: Plasma NPY, β-EP of VaD rats (RIA); format: in vivo, SD rats; conditions: 2 months of administration, compositions 3 g/kg, Huperzine 0.00006 g/kg, Tanakan 0.02 g/kg
Protocol: as §5

[11] = test system: SOD, MDA of brain tissue; test: Activity of SOD and content of MDA in the brains of VaD rats; format: in vivo, SD rats; conditions: 2 months of administration, compositions 3 g/kg, Huperzine 0.00006 g/kg, Tanakan 0.02 g/kg
Protocol: as §5

[12] = test system: Ach in brains of VaD rats; test: Content of Ach in brains of VaD rats (HPLC); format: in vivo, SD rats; conditions: 2 months of administration, compositions 3 g/kg, Huperzine 0.00006 g/kg, Tanakan 0.02 g/kg
Protocol: Mobile phase: Na2HPO4 (100 mmol/L), TMACl (0.5 mmol/L), OSA (2.0 mmo/L), MB reagent (0.005% v/v), diluted with redistilled water, 85% PH was adjusted to8.00 by H3PO4, filtered by 0.22 μm aqueous membrane.
Chromatographic conditions: ESA582 type binary pump system, ESA ACH-3 column (150×3 mm 5 μm I.D.), former ESA immobilized enzyme reactor before columns (ESA ACH-SPR, 3 cm), flow rate, 0.35 mL/min, column temperature, 35° C.
Test conditions: 5600 A electrochemical detector; 5040 type solid porous electrode (platinum working electrode, a solid state palladium reference electrode) potential: +300 mV.
The results were analyzed statistically (t test).

[13] = ischemia-reperfusion + D-galactose mice, compositions 4 g/kg, Huperzine 0.00008 g/kg, Tanakan 0.03 g/kg

Compound: CC(=O)Oc1ccccc1C(=O)O [Aspirin]
- Platelet aggregation ([1]; rats dosed 7 days (compositions 3 g/kg, aspirin 0.0044 g/kg), PRP): 23.27 ± 3.06 %
- aggregation inhibition rate ([1]; rats dosed 7 days, versus control group): 49.57%
- inhibition at 4.4 mg/kg ([2]; Rattus norvegicus, 168 h, 7 days, versus control group, read-out: Inhibition rate (thrombosis)): 30.9%
- Wet weights of thrombus ([2]; once a day 7 days, artery-vein shunt 20 minutes): 0.056 ± 0.011 g

Compound: C/C=C1\[C@H]2C=C(C)C[C@]1(N)c1ccc(=O)[nH]c1C2 [Huperzine, huperzine A]
- The incubation time Within 5 min [3]: 229.1 ± 94.6 s
- number of errors Within 5 min [3]: 0.5 ± 0.7
- number of errors Within 5 min [4]: 0.6 ± 0.9
- the incubation period Within 5 min [4]: 243.1 ± 38.4 s
- GSH-Px [5]: 28.58 ± 2.87 U/mgprot
- MDA [5]: 4.651 ± 0.832 nmol/mgprot
- NO [5]: 1.442 ± 0.295 nmol/mgprot
- SOD [5]: 159.8 ± 21.2 U/mgprot
- Length of path (MORRIS water maze) [6, 13]: 355.8 ± 234.1 cm
- Time of duration (MORRIS water maze) [6, 13]: 21.7 ± 14.6 s
- Search strategy (MORRIS water maze) ([6]; score: straight line type 1 point, tendency type 2, edge type 3, random type 4, mice): 2.4 ± 1.0 points
- number of errors Within 5 minutes [7]: 0.6 ± 0.6
- the incubation period Within 5 minutes [7]: 281.6 ± 39.4 s
- Pathological examination: arrangement of the hippocampal pyramidal cells [8]: slightly loose
- time of duration in MORRIS water maze, 2 months after the model was created ([9]; 1 month of administration, compositions 3 g/kg, Huperzine 0.00006 g/kg, Tanakan 0.02 g/kg): 24.6 ± 19.0 s
- time of duration in MORRIS water maze, 3 months after the model was created ([9]; 2 months of administration, compositions 3 g/kg, Huperzine 0.00006 g/kg, Tanakan 0.02 g/kg): 9.0 ± 5.2 s
- time of duration in MORRIS water maze, 1 month after the model was created ([9]; before administration): 58.6 ± 26.6 s
- NPγ [10]: 847.7 ± 189.1 pg/mL
- β-EP [10]: 1032.9 ± 109.5 pg/mL
- MDA [11]: 2.194 ± 0.251 μmol/mgprot
- SOD [11]: 51.7 ± 9.6 U/mgprot
- Ach [12]: 1992.6 ± 590.0 ng/g wet weight of brain tissue
